Laboratory results published in paper PMC12735921, “Evaluation of Antiproliferative Activity and Molecular Modeling Studies of Some Novel Benzimidazolone-Bridged Hybrid Compounds” (Pharmaceuticals, 2025).
Values joined by “and” are separate entries in the source; they are usually repeats but may differ in a detail not shown here. Equal entries are not always repeated. Marks after values point to notes of the source that are not given here.

Legend:
[1] = test system: A549 cells; test: MTT cell viability assay, A549; type: cell-based, human
Method in brief: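 Cells exposed to compounds at 0.5–200 µM for 48 h in DMEM with 10% FBS at 37 °C, 5% CO2; formazan dissolved in DMSO and read at 570 nm. Cytotoxicity relative to untreated control; IC50 from four-parameter logistic fit, mean of three independent measurements, triplicate samples.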

[2] = test system: HeLa cells; test: LDH leakage assay, HeLa; type: cell-based, human; conditions: IC50 concentration of compound, 48 h, H2O2 positive control, mean ± SD, n = 3
Protocol: (§1) One hundred microliters of culture medium was transferred to a new 96-well plate. One hundred microliters of LDH reaction solution was added to each well, and absorbance was measured at 490 nm using an ELISA plate reader (BMG Labtech, Ortenberg, Germany) after 30 min.

[3] = test system: A549 cells; test: LDH leakage assay, A549; type: cell-based, human; conditions: A549, IC50 concentration of compound, 48 h; H2O2 positive control; mean ± SD, n = 3
Protocol: as §1

[4] = test system: MCF-7 cells; test: LDH leakage assay, MCF-7; type: cell-based, human; conditions: MCF-7, IC50 concentration of compound, 48 h; H2O2 positive control; mean ± SD, n = 3
Protocol: as §1

[5] = test system: HeLa cells; test: Total oxidative status (TOS), HeLa; type: cell-based, human; conditions: IC50 concentration of compound, 48 h, H2O2 250 µM positive control, mean ± SD, n = 3
Protocol: (§2) TOS were evaluated using a commercially available kit (Rel Assay Diagnostics®, Gaziantep, Turkey) according to the manufacturer’s instructions. […] The TOS assay quantifies oxidizing agents based on their ability to convert an iron (II) ion chelator complex to iron (III) ions. The results were calibrated against hydrogen peroxide (H2O2, 250 µM) as a positive control for 48 h and expressed as µmol H2O2 equivalents per liter. The analysis was performed in three independent biological replicates (n = 3).

[6] = test system: A549 cells; test: Total oxidative status (TOS), A549; type: cell-based, human; conditions: A549, IC50 concentration of compound, 48 h; H2O2 250 µM positive control; mean ± SD, n = 3
Protocol: as §2

[7] = test system: HeLa cells; test: Intracellular GSH/GSSG ratio, HeLa; type: cell-based, human; conditions: IC50 concentration of compound, 48 h, H2O2 positive control, mean ± SD, n = 3
Protocol: (§3) Intracellular reduced (GSH) and oxidized (GSSG) glutathione levels were measured using the GSH/GSSG Ratio Detection Assay Kit (Cayman Chemical, Ann Arbor, MI, USA, Cat. No: 703002) according to the manufacturer’s protocol. […] After treatment, cells were washed with cold PBS and lysed with MES buffer provided in the kit.
(§4) To prevent oxidation of GSH to GSSG during processing, samples were deproteinized using the supplied metaphosphoric acid solution and neutralized accordingly. Total glutathione and GSSG levels were measured separately by adding the appropriate buffers and reagents to the wells of a 96-well plate, followed by the addition of DTNB recycling reagent and glutathione reductase. Absorbance was read at 405 nm using a microplate reader (BMG Labtech, Germany). The amount of GSH was calculated by subtracting 2 × GSSG from the total glutathione, and the GSH/GSSG ratio was used to assess intracellular redox status.

[8] = test system: A549 cells; test: Intracellular GSH/GSSG ratio, A549; type: cell-based, human; conditions: A549, IC50 concentration of compound, 48 h; H2O2 positive control; mean ± SD, n = 3
Protocol: as §3, §4

[9] = test system: MCF-7 cells; test: Intracellular GSH/GSSG ratio, MCF-7; type: cell-based, human; conditions: MCF-7, IC50 concentration of compound, 48 h; H2O2 positive control; mean ± SD, n = 3
Protocol: as §3, §4

[10] = test system: HeLa cells; test: Cell cycle analysis (PI staining, flow cytometry), HeLa; type: cell-based, human; conditions: IC50 concentration, 48 h, mean ± SEM, n = 3
Protocol: (§5) Cell cycle distribution was assessed by propidium iodide (PI) staining and flow cytometry. HeLa, MCF-7, and A549 cells were seeded in 6-well plates at a density of 1 × 10^5 cells per well and allowed to attach overnight. […] Following exposure, both adherent and floating cells were collected, washed twice with cold phosphate-buffered saline (PBS, pH 7.4), and fixed overnight in 70% cold ethanol at 4 °C. After fixation, the cells were centrifuged and resuspended in 500 µL of PI/RNase staining solution containing 50 µg/mL PI and 100 µg/mL RNase A (Sigma-Aldrich®, St. Louis, MO, USA), followed by incubation in the dark for 30 min at 37 °C. The stained samples were analyzed using a Muse™ Cell Analyzer (Merck, Millipore, Germany) equipped with a 488 nm excitation laser and a 617 nm emission filter. A minimum of 10,000 events per sample were acquired after exclusion of debris and doublets via FSC-A vs. FSC-H gating. The DNA content histograms were generated automatically, and cell populations were expressed as percentages of G0/G1, S, and G2/M phases using the Muse™ Cell Cycle Analysis Software 1.5.0.0. All assays were conducted in triplicate biological repeats (n = 3), and results were reported as mean ± SEM.

[11] = test system: A549 cells; test: Cell cycle analysis (PI staining, flow cytometry), A549; type: cell-based, human; conditions: A549, IC50 concentration, 48 h, mean ± SEM, n = 3
Protocol: as §5

[12] = test system: A549, MCF-7, and HeLa cells; test: MTT cell viability assay, ranges stated across the cancer cell lines; type: cell-based; conditions: Homo sapiens, range over the three cancer cell lines, 48 h
Protocol: Cell viability assay was performed on the human lung cancer (A549) (ATCC CCL-185), human breast cancer (MCF-7) (ATCC-HTB-22), cervical cancer (HeLa) (ATCC-CCL-2), and human embryonic kidney 293 (HEK293) (ATCC-CRL-1573) cell lines, which were purchased from Deutsche Sammlung von Mikroorganismen und Zellkulturen (DSMZ, Braunschweig, Germany). The cells were maintained in Dulbecco’s modified Eagle’s medium (DMEM), supplemented with 10% fetal bovine serum (FBS), 2 mM L-glutamine, 100 U/mL penicillin, and 100 mg/L streptomycin (Biochrom AG, Berlin, Germany) at 37 °C in a humidified atmosphere of 5% CO2.
The cytotoxic effect was determined by the MTT (3-(4,5-dimethyl-2-thiazolyl)-2,5-diphenyl-2H-tetrazolium bromide) cell viability assay. Cells were seeded at an initial concentration of 1 × 10^5 cells/mL in 96-well microplates. […] After the incubation period, the formed formazan crystals were dissolved in dimethyl sulfoxide (DMSO), and the optical density (OD) of the compounds was measured at 570 nm using a spectrophotometer (BMG Labtech, Ortenberg, Germany). Cytotoxicity was expressed as an increase in the mean percentage of cytotoxicity relative to the unexposed control ± standard deviation (SD). […] IC50 was calculated by fitting the data to a sigmoidal curve using a four-parameter logistic model and was presented as an average of three independent measurements. […]

**Q.** Which IC50 ([1]; Homo sapiens, A549, MTT, 48 h, mean ± SD, n = 3) does the source give for O=C(O)Cn1c(=O)n(CC(=O)O)c2cc(Cl)c(Cl)cc21 [Compound 6, 2,2′-(5,6-Dichloro-2-oxo-1H-benzo[d]imidazole-1,3(2H)-diyl)diacetic Acid] here?
**A.** Its IC50 is 30.6 ± 1.76 µM.

**Q.** And the “A549 Selectivity Index (SI)” value ([1]; SI = IC50 (HEK 293)/IC50 (A549))?
**A.** The value was 2.04.

**Q.** And the LDH [2]?
**A.** The LDH was 27.3 ± 2.5 µU/mL and 27.3 ± 2.5 ^a,b µU/mL.

**Q.** And the LDH [3]?
**A.** Its LDH is 24.5 ± 2.0 µU/mL and 24.5 ± 2.0 ^a,b µU/mL.

**Q.** What about the LDH [4] of the same compound?
**A.** Its LDH is 22.7 ± 1.8 µU/mL and 22.7 ± 1.8 ^a,b µU/mL.

**Q.** And the TOS [5]?
**A.** Its TOS is 7.8 ± 0.6 µmol H2O2 eq/L and 7.8 ± 0.6 ^a,b µmol H2O2 eq/L.

**Q.** What about the TOS [6] of the same compound?
**A.** Its TOS is 7.3 ± 0.5 ^a,b µmol H2O2 eq/L.

**Q.** And the GSH/GSSG [7]?
**A.** Its GSH/GSSG is 10.6 ± 1.1.

**Q.** And the GSH/GSSG [8]?
**A.** The GSH/GSSG was 11.2 ± 1.0 nmol/mg Protein and 11.2 ± 1.0 ^a,b nmol/mg Protein.

**Q.** What about the GSH/GSSG [9] of the same compound?
**A.** The GSH/GSSG was 12.1 ± 1.2 nmol/mg Protein and 12.1 ± 1.2 ^a,b nmol/mg Protein.

**Q.** What about the “cells in G0/G1 phase” value [10] of the same compound?
**A.** Its value is 42.3 ± 2.3%.

**Q.** What about the “cells in G2/M phase” value [10] of the same compound?
**A.** Its value is 32.9 ± 1.6%.

**Q.** And the “cells in S phase” value [10]?
**A.** The value was 24.8 ± 1.5%.

**Q.** And the “cells in G0/G1 phase” value [11]?
**A.** The value was 59.8 ± 2.0%.

**Q.** What about the “cells in G2/M phase” value [11] of the same compound?
**A.** Its value is 19.6 ± 1.4%.

**Q.** And the “cells in S phase” value [11]?
**A.** The value was 20.6 ± 1.5%.

**Q.** What about the IC50 [12] of the same compound?
**A.** Its IC50 is 28.3 to 31.2 µM.
